Patent US9981043B2, “Analgesic conjugates” (priority 2013, dated 2018)
Values joined by “and” are separate entries in the source; they are usually repeats but may differ in a detail not shown here. Equal entries are not always repeated. “Also recorded” adds a separate entry of the source.

What was measured:
LPS pretreated mice = assay: Radiant tail flick antinociception, LPS pretreated mice; assay type: in vivo
Method: Compounds were dissolved in 10% DMSO and then diluted to less than 1% DMSO in the test solutions. […] Compounds were administered in a 5-μl volume in conscious mice, either i.c.v. (Haley T J & McCormick W G, Br J Pharmacol Chemother, 1957, 12(1), 12-15) or i.t. (Hylden J L K & Wilcox G L, Eur. J. Pharmacol., 1980, 67(2-3), 313-316). Peak times were determined by comparing the percent maximal possible effect (% MPE) at 5, 10, 20 and 60 minutes after injection.
The first group mice were pretreated with lipopolysaccaride (LPS, 1 mg/kg, i.p. from Escherichia coli 0111:B4; Sigma-Aldrich, St. Louis, Mo.) for 24 hours before testing for antinociception of compounds 2-6 (Seo Y-J, et al., Pharmacol., Biochem. Behav., 2008, 91, 121-127). This group was compared to a group without pretreatment.
The tail flick assay is used first to test for antinociception as described by D'Amour and Smith (D'AMOUR FE & SMITH DL (1941) J. Pharmacol. Exp. Ther. 72(1):74-79) and modified by Dewey et al. (Dewey W L, Harris L S, Howes J F, & Nuite JA (1970) J. Pharmacol. Exp. Ther. 175(2):435-442). For the measurement of the tail-flick latency, mice are wrapped in a light cloth and held gently in one hand with the tail positioned in the apparatus (Tail Flick Analgesia Meter, Columbus Instruments, Columbus, Ohio) for radiant heat stimulus. The tail-flick response is elicited by applying radiant heat to the dorsal side of the tail. The intensity of the heat is set so that the mouse flicks its tail within 2 to 3 seconds. The test latency is measured before drug treatment (control) and again after the drug treatment (test) at the peak time of the compound; a 10 second maximum cut-off time is used to prevent damage to the tail. Antinociception is quantified according to the Harris L S & Pierson A K, J. Pharmacol. Exp. Ther., 1964, 143(2):141-148, as the percent maximal possible effect (% MPE), which is calculated as: % MPE=(Test−Control/10−Control)×100.
At least three groups of four to ten mice are used for each dose response curve. ED50 values with 95% confidence intervals (C.I.) are computed with GraphPad Prism 4 by using nonlinear regression methods.

[1] = test system: C3H mice with bone cancer; assay: von Frey mechanical hyperalgesia, bone cancer (fibrosarcoma) mice; assay type: in vivo
Method: The mouse hind paw model of bone cancer was the third model of pain (Wacnik P W, et al., Pain Research & Management, 2000, 16, 615-637; and Wacnik P W, et al., J Neurosci, 2001, 21(23), 9355-9366). Cell Culture: National Collection of Type Cultures (NCTC) clone 2472 fibrosarcoma cells, originally derived from a connective tissue tumor in a C3H mouse, were obtained from the American Type Cell Culture Collection (Rockville, Md.). Cells were grown and maintained in accordance with standard cell culturing techniques. NCTC cells were grown to 80-90% confluence in 75 cm^2 flasks (Corning, Lowell, Mass.) in Dulbecco's Modification of Eagles Medium (Invitrogen, Carlsbad, Calif.) fortified with 10% Horse Serum and sodium bicarbonate. Cell cultures were housed in a water-jacketed incubator with 5% carbon dioxide at 37° C.
Cells were prepared for implantation by first pouring off the culture medium and washing with phosphate-buffered saline (PBS). Trypsin was added to flask and placed in incubator for 3 minutes. Upon detachment, cells were suspended in an ample amount of culture medium to terminate enzymatic activity and centrifuged for 10 min at 1000 g. Fibrosarcoma cells were re-suspended in a known amount of PBS for counting, quantified on a hemacytometer, pelleted and re-suspended in PBS. Fibrosarcoma cells were again re-suspended to a final concentration of 2×10^5 cells in 20 μl. Initially, animals were anesthetized in a plexi-glass chamber using 3% isoflurane in 3 L/min oxygen. Once each mouse was completely anesthetized, a maintenance rate of 2% isoflurane in 1.5 L/min oxygen was maintained during the short implantation procedure. Tumor cells were manually injected by boring into the calcaneus bone using a 29½ gauge needle connected to a sterile 0.3 ml insulin syringe as previously described (19). Following injection, mice were allowed to recover in cages on a heating pad. Animals showing any signs of dysfunction (e.g. problems with ambulation, lethargy or excessive bleeding) or distress where euthanized according to CO2 guidelines.
C3H mice were was placed under a clean glass cup on a wire mesh grid and allowed to acclimate for thirty minutes. Mechanical hypersensitivity was tested using a von Frey filament #3.61 (which produces a force of […]) to the plantar surface of both the left and right hind paw with enough force to cause it to bow slightly. Starting with the right hind paw, the number of positive responses out of a total of 10 applications was recorded followed by the left hind paw. Positive response was indicated by a sharp withdrawal or flinching behavior of the paw. Baseline von Frey measurements were obtained prior to treatment with CFA, tumor and saline controls. […] Subsequent measurements were taken at various time points after intrathecal (i.t.) injection of test compounds on days 3, 7, 10, 14, 17, and 21. % MPE was calculated ((Time-point value−Day# baseline)/(Day 0 baseline−day# baseline))*100 (Smeester B A, Al-Gizawiy M, & Beitz A J (2012) Evidence-Based Complementary and Alternative Medicine 2012:16). Animals with saline injection served as controls for tumor cell implantation and tumor-induced nociception. Behavioral assessments were conducted during the light cycle at approximately the same time each day. The investigator performing the von Frey testing was blinded to the animal and compound injected.
A well-established rodent hind paw model of bone cancer pain (Wacnik P W, et al., J Neurosci. 2001, 21(23), 9355-66) was to examine the effects of representative bivalent ligands on tumor-induced nociception. The inbred C3H/He line is syngeneic to the fibrosarcoma cells used in these experiments and allows these cells to grow tumors without rejection. Male C3H mice were used for all experiments. Animals were maintained on a 12 hour light/dark cycle with food and water ad libitum.
Cells were prepared for implantation by first pouring off the culture medium and washing with phosphate-buffered saline (PBS). […]

In the case of `Cc1cccc(C#Cc2cccc(OCCNC(=O)COCC(=O)NCCCCCNC(=O)COCC(=O)N[C@H]3CC[C@@]4(O)C5Cc6ccc(O)c7c6[C@@]4(CCN5C)[C@H]3O7)c2)n1` [Compound 4c, N-((4aS,7S,7aR,12bS)-4a,9-dihydroxy-3-methyl-2,3,4,4a,5,6,7,7a-octahydro-1H-4,12-methanobenzofuro[3,2-e]isoquinolin-7-yl)-2-((1-(3-((6-methylpyridin-2-yl)ethynyl)phenoxy)-4,8,16-trioxo-6-oxa-3,9,15-triazaheptadecan-17-yl)oxy)acetamide], the “ED50 (CI) i.c.v.” value (LPS pretreated mice; LPS pretreated (1 mg/kg 24 hours i.p.), i.c.v.) is reported as 374.9 pmol/mouse, the “ED50 (CI) i.t.” value (LPS pretreated mice; LPS pretreated (1 mg/kg 24 hours i.p.), i.t.) is reported as < 9 fmol/mouse and 9 fmol/mouse and 8.83 fmol/mouse and the antinociception (LPS pretreated mice; LPS pretreated, tail flick, dose of the acute tolerance test) is reported as 97%. For the same molecule, the Tolerance ([1]; bone cancer mice, i.t.) was “without tolerance; also recorded: absence of tolerance”, the “duration of significant antinociception” value ([1]; bone cancer, PID 21, 1 nmol i.t.) was 12 h and the duration of antinociception ([1]; bone cancer, PID 21, single 10 nmol i.t.) was 24 h and > 24 h. For the same molecule, the ED50 i.t. ([1]; bone cancer, day 21, i.t.) was 0.01 fmol/mouse and the “antinociception in tumor-bearing mice” value ([1]; bone cancer, i.t., beginning on PID 3) was “potent antinociception”.
